How the values were obtained:
blackgrass = test: Test C pre-/postemergence test; assay type: in vivo, Alopecurus myosuroides
Source text: (§1) Seeds of plant species selected from blackgrass (Alopecurus myosuroides), downy brome (Bromus tectorum), green foxtail (Setaria viridis), Italian ryegrass (Lolium multiflorum), wheat (Triticum aestivum), wild oat (Avena fatua), catchweed bedstraw (Galium aparine), Russian thistle (Salsola kali), […] (Cynodon dactylon), Surinam grass (Brachiaria decumbens), cocklebur (Xanthium strumarium), corn (Zea mays), crabgrass (Digitaria sanguinalis), woolly cupgrass (Eriochloa villosa), giant foxtail (Setaria faberii), Goosegrass (Eleusin indica), johnsongrass (Sorghum halepense), kochia (Kochia scoparia), lambsquarters (Chenopodium album), morningglory (Ipomoea coccinea), eastern black nightshade (Solanum ptycanthum), yellow nutsedge (Cyperus esculentus), pigweed (Amaranthus retroflexus), common ragweed (Ambrosia elation), soybean (Glycine max), common (oilseed) sunflower (Helianthus annuus), and velvetleaf (Abutilon theophrasti) were planted and treated preemergence with test chemicals formulated in a non-phytotoxic solvent mixture which included a surfactant. At the same time, plants selected from these crop and weed species and also winter barley (Hordeum vulgare), canarygrass (Phalaris minor), and chickweed (Stellaria media) were treated with postemergence applications of some of the test chemicals formulated in the same manner. Plants ranged in height from 2 to 18 cm (1- to 4-leaf stage) for postemergence treatments. […] At time of treatment, test pots were flooded to 3 cm above the soil surface, treated by application of test compounds directly to the paddy water, and then maintained at that water depth for the duration of the test. […] A dash (-) response means no test result.

green foxtail = test: Test C pre-/postemergence test; assay type: in vivo, Setaria viridis
Source text: as §1

corn = test: Test A pre-/postemergence greenhouse test; assay type: in vivo, Zea mays; settings: for Plant response rating, Corn: 0 to 100 scale where 0 is no effect and 100 is complete control; for Corn plant response rating: 0 to 100 scale
How it was run: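 Visual injury ratings, made relative to untreated controls roughly ten days after treatment, cover both preemergence and postemergence application. Compounds in a surfactant-containing non-phytotoxic solvent were sprayed onto the soil surface after sowing and, simultaneously, onto young plants at the one- to two-leaf stage.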

common ragweed = test: Test C pre-/postemergence test; assay type: in vivo, Ambrosia elation
Source text: as §1

[1] = 62 g ai/ha, Preemergence, scale 0 to 100
[2] = 125 g ai/ha, preemergence, scale 0 (no effect) to 100 (complete control)
[3] = Postemergence, 62 g ai/ha, scale 0 to 100, 0 no effect, 100 complete control
[4] = Postemergence, 250 g ai/ha, scale 0 to 100, 0 no effect, 100 complete control
[5] = Preemergence, 31 g ai/ha, scale 0 to 100 (0 no effect, 100 complete control)
[6] = preemergence, 250 g ai/ha, scale 0 (no effect) to 100 (complete control)
[7] = Postemergence, 125 g ai/ha, scale 0 to 100, 0 no effect, 100 complete control
[8] = Postemergence, 500 g ai/ha, 0 is no effect, 100 is complete control
[9] = Preemergence, 125 g ai/ha, 0 no effect, 100 complete control
[10] = 31 g ai/ha, Preemergence, scale 0 to 100
[11] = 62 g ai/ha, preemergence, scale 0 (no effect) to 100 (complete control)
[12] = preemergence, 125 g ai/ha, scale 0 (no effect) to 100 (complete control)
[13] = Postemergence, 125 g ai/ha, 0 is no effect, 100 is complete control

SMILES	Blackgrass plant response rating (blackgrass; [1])	Blackgrass plant response rating (blackgrass; [2])	Plant response rating, Blackgrass (blackgrass; [5])	Blackgrass plant response rating (blackgrass; [6])	Foxtail, Green plant response rating (green foxtail; [1])	Foxtail, Green plant response rating (green foxtail; [2])	Plant response rating, Foxtail, Green (green foxtail; [5])	Foxtail, Green plant response rating (green foxtail; [6])	Plant response rating, Corn (corn; Postemergence, 125 g ai/ha)	Corn plant response rating (corn; [8])	Corn plant response rating (corn; [9])	Plant response rating, Corn (corn; Preemergence, 500 g ai/ha)	Ragweed plant response rating (common ragweed; [1])	Ragweed plant response rating (common ragweed; [2])	Plant response rating, Ragweed (common ragweed; [5])	Ragweed plant response rating (common ragweed; [6])	Plant response rating (0 to 100), Blackgrass (blackgrass; Preemergence, 250 g ai/ha)	Plant response rating (0 to 100), Foxtail, Green (green foxtail; Preemergence, 250 g ai/ha)	Corn plant response rating (corn; [13])	also measured
CCn1nc(C(F)(F)F)c(C[S+]([O-])c2cccc[n+]2[O-])c1OCC(F)(F)F (racemic) [Compound 65]	100	100	100	100	100	100	90	100	70	80	40	80	100	100	100	100				Plant response rating (0 to 100), Blackgrass (blackgrass; Postemergence, 31 g ai/ha): 0; Plant response rating, Blackgrass (blackgrass; [3]): 30; Plant response rating, Blackgrass (blackgrass; [4]): 30; Plant response rating (0 to 100), Foxtail, Green (green foxtail; Postemergence, 31 g ai/ha): 5; Plant response rating, Foxtail, Green (green foxtail; [3]): 50; Plant response rating, Foxtail, Green (green foxtail; [7]): 80; Plant response rating, Foxtail, Green (green foxtail; [4]): 90; Plant response rating (0 to 100), Ragweed (common ragweed; Postemergence, 31 g ai/ha): 0; Plant response rating (0 to 100), Ragweed (common ragweed; Postemergence, 62 g ai/ha): 0; Plant response rating, Ragweed (common ragweed; [7]): 0; Plant response rating, Ragweed (common ragweed; [4]): 0
Cc1cc[n+]([O-])c(S(=O)(=O)C(C)c2c(C(F)(F)F)nn(C)c2Cl)c1 (racemic) [Compound 14]										50	0	70					80	100	0	Blackgrass plant response rating (blackgrass; [10]): 40; Blackgrass plant response rating (blackgrass; [11]): 80; Foxtail, Green plant response rating (green foxtail; [10]): 90; Foxtail, Green plant response rating (green foxtail; [11]): 100; Foxtail, Green plant response rating (green foxtail; [12]): 100; Ragweed plant response rating (common ragweed; [10]): 0; Ragweed plant response rating (common ragweed; [11]): 85; Plant response rating (0 to 100), Ragweed (common ragweed; Preemergence, 250 g ai/ha): 100; Ragweed plant response rating (common ragweed; [12]): 85
Cc1cc[n+]([O-])c(S(=O)(=O)Cc2c(C(F)(F)C(F)(F)F)nn(C)c2OCC(F)(F)F)c1 [Compound 99]	100	100	80	100	80	100	80	100	40	60	0		100	100		100				Corn plant response rating (corn; Preemergence, 500 g ai/ha, 0 no effect, 100 complete control): 30
Cn1nc(C(F)(F)F)c(C[S+]([O-])c2ccc(Cl)c[n+]2[O-])c1Cl (racemic) [Compound 17]	80		80		100		70			60	0	80	75		10		100	100	50	Blackgrass plant response rating (blackgrass; [12]): 85
Cn1nc(C(F)(F)C(F)(F)F)c(C[S+]([O-])c2ccc(Cl)c[n+]2[O-])c1OCC(F)(F)F (centres unmarked) [Compound 92]	100	100	85	100	95	98	90	100	70	80	60	90	85	100		100				
Cn1nc(C(F)(F)F)c(C[S+]([O-])c2ccc(F)c[n+]2[O-])c1Cl (centres unmarked) [Compound 54]	50		0	85	95	95	60	95	0	60	20	70	0	5	0	10				
CC(c1c(C(F)(F)F)nn(C)c1Cl)S(=O)(=O)c1ccc(Cl)c[n+]1[O-] (racemic) [Compound 40]										40	0	0							0	Plant response rating (0 to 100), Blackgrass (blackgrass; Postemergence, 31 g ai/ha): 0; Plant response rating, Blackgrass (blackgrass; [3]): 0; Plant response rating, Blackgrass (blackgrass; [7]): 0; Plant response rating, Blackgrass (blackgrass; [4]): 0; Plant response rating (0 to 100), Foxtail, Green (green foxtail; Postemergence, 31 g ai/ha): 0; Plant response rating, Foxtail, Green (green foxtail; [3]): 0; Plant response rating, Foxtail, Green (green foxtail; [7]): 0; Plant response rating, Foxtail, Green (green foxtail; [4]): 5; Plant response rating (0 to 100), Ragweed (common ragweed; Postemergence, 31 g ai/ha): 0; Plant response rating (0 to 100), Ragweed (common ragweed; Postemergence, 62 g ai/ha): 0; Plant response rating, Ragweed (common ragweed; [7]): 0; Plant response rating, Ragweed (common ragweed; [4]): 5
Cn1nc(C(F)(F)F)c(C(Cl)S(=O)(=O)c2cccc[n+]2[O-])c1OCC(F)(F)F (racemic) [Compound 36]	95	95	60	100	70	75		100		0	0	0	0	10	0	50			0	
Cn1nc(C(F)(F)F)c(CS(=O)(=O)c2cc(C(C)(C)C)cc[n+]2[O-])c1OC(F)F [Compound 25]	0		0		98		80			20	0	60	10		0		0	100	0	Blackgrass plant response rating (blackgrass; [12]): 0
Cn1nc(C(F)(F)F)c(CS(=O)(=O)c2ccc(Cl)c[n+]2[O-])c1OC(F)F [Compound 7]										20		30					100	100		Blackgrass plant response rating (blackgrass; [10]): 70; Blackgrass plant response rating (blackgrass; [11]): 70; Blackgrass plant response rating (blackgrass; [12]): 85; Foxtail, Green plant response rating (green foxtail; [10]): 40; Foxtail, Green plant response rating (green foxtail; [11]): 60; Foxtail, Green plant response rating (green foxtail; [12]): 80; Ragweed plant response rating (common ragweed; [10]): 0; Ragweed plant response rating (common ragweed; [11]): 80; Plant response rating (0 to 100), Ragweed (common ragweed; Preemergence, 250 g ai/ha): 100; Ragweed plant response rating (common ragweed; [12]): 100
Cc1cc[n+]([O-])c(S(=O)(=O)Cc2c(C(F)(F)F)nn(C)c2OC(C)C(F)(F)F)c1 (centres unmarked) [Compound 96]	100	100	65	100	95	98	95	100	20		0	50	20	100	20	100				

Source: patent US20100298141A1, “SUBSTITUTED PYRIDINE N-OXIDE HERBICIDES” (E. I. DU PONT DE NEMOURS AND COMPANY, priority 2007, published 2010)
